Patent publication US9475815B2, “Substituted benzothienyl-pyrrolotriazines and uses thereof” (Bayer Intellectual Property GmbH, priority 2012, dated 2016)

Assays:
human FGFR-3 = human FGFR-3 (Homo sapiens (Human), UniProt P22607); assay: FGFR-3 kinase assay (TR-FRET); format: biochemical; details: 10 μM ATP, 15 min pre-incubation with enzyme
human mTOR = human mTOR (Homo sapiens (Human), UniProt P42345); assay: mTOR kinase assay (TR-FRET, for comparative purposes); format: biochemical; details: for inhibition at 1 µM: read-out: mTOR % inhibition @ 1 μM, 1 μM test compound, 40 μM ATP, mean values
Sequence of human mTOR (P42345 1360-2549): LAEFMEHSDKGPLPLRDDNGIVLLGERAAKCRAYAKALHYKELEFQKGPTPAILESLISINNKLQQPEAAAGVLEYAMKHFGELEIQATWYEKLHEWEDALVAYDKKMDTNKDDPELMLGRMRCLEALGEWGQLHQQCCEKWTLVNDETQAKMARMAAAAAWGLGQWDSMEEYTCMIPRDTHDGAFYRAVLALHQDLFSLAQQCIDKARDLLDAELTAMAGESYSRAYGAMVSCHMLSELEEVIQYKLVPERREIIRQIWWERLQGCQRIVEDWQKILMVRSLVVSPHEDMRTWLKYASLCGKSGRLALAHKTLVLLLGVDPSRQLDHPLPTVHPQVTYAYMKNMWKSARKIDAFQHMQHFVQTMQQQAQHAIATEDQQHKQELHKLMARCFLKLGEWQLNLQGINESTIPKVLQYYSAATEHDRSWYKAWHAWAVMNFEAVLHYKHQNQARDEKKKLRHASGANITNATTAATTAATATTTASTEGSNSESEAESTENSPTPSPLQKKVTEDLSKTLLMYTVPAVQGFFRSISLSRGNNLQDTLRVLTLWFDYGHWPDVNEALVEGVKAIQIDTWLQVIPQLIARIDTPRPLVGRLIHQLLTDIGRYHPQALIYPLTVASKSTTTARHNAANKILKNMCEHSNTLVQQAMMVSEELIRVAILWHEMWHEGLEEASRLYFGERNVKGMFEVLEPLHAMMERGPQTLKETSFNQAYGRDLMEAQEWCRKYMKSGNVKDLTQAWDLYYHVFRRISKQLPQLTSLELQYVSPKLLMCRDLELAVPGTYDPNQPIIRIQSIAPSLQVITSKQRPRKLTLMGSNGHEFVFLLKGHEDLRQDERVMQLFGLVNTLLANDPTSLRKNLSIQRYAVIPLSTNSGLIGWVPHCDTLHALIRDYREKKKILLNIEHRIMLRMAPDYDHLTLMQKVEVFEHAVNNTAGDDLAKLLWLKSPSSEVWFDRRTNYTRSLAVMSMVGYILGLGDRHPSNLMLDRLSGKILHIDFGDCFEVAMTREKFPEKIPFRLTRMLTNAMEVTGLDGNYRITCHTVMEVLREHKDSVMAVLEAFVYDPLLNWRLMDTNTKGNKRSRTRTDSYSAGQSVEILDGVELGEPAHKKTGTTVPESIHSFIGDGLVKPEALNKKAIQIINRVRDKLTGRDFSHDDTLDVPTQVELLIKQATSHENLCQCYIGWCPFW
Description: mTOR inhibitory activity of the compounds of the present invention was quantified employing the TR-FRET based mTOR assay as described in the following paragraphs:
Test compounds were dissolved in DMSO to generate 10 mM stock solutions. These solutions were first 10-fold diluted by 100% DMSO to get 1 mM solutions in 100% DMSO, then 100-fold diluted by 50% DMSO to get 10 μM solutions in 50% DMSO.
(final concentration in the 10 μl assay volume=1 nM) in FRET buffer.
For this, the fluorescence emissions at 495 nm and 520 nm after excitation at 340 nm was measured in an Envision 2104 multilabel reader (Perkin-Elmer).

human FGFR-1 = human FGFR-1 (Homo sapiens, UniProt P11362); assay: FGFR-1 high ATP kinase assay (TR-FRET)
Sequence of human FGFR-1 (P11362 22-822 limits assumed): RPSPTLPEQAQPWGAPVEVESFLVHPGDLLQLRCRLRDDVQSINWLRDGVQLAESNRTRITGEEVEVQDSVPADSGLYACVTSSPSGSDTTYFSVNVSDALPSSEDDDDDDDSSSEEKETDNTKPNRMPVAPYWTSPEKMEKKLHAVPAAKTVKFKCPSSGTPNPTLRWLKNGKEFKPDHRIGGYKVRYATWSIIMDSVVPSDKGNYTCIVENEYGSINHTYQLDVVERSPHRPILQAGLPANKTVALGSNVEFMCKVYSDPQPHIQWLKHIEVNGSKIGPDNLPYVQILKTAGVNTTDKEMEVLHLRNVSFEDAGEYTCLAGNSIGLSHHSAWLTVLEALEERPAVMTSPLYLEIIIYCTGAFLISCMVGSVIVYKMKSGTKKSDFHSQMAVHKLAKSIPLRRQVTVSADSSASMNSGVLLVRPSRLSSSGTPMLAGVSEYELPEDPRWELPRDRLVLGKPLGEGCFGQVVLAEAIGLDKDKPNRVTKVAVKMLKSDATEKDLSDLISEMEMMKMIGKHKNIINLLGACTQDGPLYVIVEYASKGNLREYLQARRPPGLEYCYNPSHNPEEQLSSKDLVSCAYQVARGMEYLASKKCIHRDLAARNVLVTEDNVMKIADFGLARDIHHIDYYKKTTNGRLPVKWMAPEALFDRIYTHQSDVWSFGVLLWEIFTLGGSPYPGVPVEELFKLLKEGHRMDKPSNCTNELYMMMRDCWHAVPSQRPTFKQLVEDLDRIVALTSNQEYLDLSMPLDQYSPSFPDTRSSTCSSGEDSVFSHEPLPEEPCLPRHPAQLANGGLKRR

Sequence of human FGFR-3 (P22607 397-806): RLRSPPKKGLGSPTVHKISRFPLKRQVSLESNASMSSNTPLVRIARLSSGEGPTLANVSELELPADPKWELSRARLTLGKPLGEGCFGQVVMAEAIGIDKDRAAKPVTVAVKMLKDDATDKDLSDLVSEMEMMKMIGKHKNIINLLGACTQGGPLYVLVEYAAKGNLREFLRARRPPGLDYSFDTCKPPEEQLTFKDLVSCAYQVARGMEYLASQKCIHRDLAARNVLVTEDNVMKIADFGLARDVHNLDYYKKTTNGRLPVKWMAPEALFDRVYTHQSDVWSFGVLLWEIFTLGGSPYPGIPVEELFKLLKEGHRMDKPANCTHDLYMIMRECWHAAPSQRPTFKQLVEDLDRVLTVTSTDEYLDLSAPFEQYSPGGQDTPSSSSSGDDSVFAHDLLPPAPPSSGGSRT

SMILES	IC50 (human FGFR-3) [nM]	inhibition at 1 µM (human mTOR) [%]	IC50 (human FGFR-1) [nM]	mTOR % inhibition @ 1 μM (human mTOR; 1 μM test compound, 40 μM ATP, mean values)
COc1cc(C)cc2cc(-c3cc(CN4CCC(N5CCCC5)C4)n4ncnc(N)c34)sc12 (stereo not drawn) [Example 60]	58.6	11.3	39.6	
COc1cc(C)cc2cc(-c3cc(CNCC4CCN(C)CC4)n4ncnc(N)c34)sc12 [Example 61]	43.5	8.6	39.7	
COc1cc(C)cc2cc(-c3cc(CN4CCN(CC(N)=O)CC4)n4ncnc(N)c34)sc12 [Example 64]	56.4	28.2	48.9	
COc1cc(C)cc2cc(-c3cc(CNCCC4CCCN4C)n4ncnc(N)c34)sc12 (stereo not drawn) [Example 65]	49.5	5.9	49.1	
COc1cc(C)cc2cc(-c3cc(CN4CC(N(C)C)C4)n4ncnc(N)c34)sc12 [Example 66]	67.2	5.9	49.6	
COc1cc(C)cc2cc(-c3cc(CN(C)CCC(N)=O)n4ncnc(N)c34)sc12 [Example 67]	28.4	48	53.1	
COc1cc(C)cc2cc(-c3cc(CN4CCN(C(N)=O)CC4)n4ncnc(N)c34)sc12 [Example 68]	29.3	43.1	55	
COc1cc(C)cc2cc(-c3cc(CNC4CCN(C)CC4)n4ncnc(N)c34)sc12 [Example 69]	59.9	4.6	59.5	
COc1cc(C)cc2cc(-c3cc(CN4CCCC(O)C4)n4ncnc(N)c34)sc12 (stereo not drawn) [Example 70]	57.7	27.9	62	
COc1cc(C)cc2cc(-c3cc(CN4CC(N5CCCC5)C4)n4ncnc(N)c34)sc12 [Example 71]	79.3	21.5	63.4	
COc1cc(C)cc2cc(-c3cc(CNCCO)n4ncnc(N)c34)sc12 [Example 72]	47.2		65	no inhib. effect detect.
COc1cc(C)cc2cc(-c3cc(CN4CCC(CO)CC4)n4ncnc(N)c34)sc12 [Example 73]	64.8	17.2	66.6	
COc1cc(C)cc2cc(-c3cc(CN(C)C4CCS(=O)(=O)C4)n4ncnc(N)c34)sc12 (stereo not drawn) [Example 74]	87.1	46.9	68.3	
COc1cc(C)cc2cc(-c3cc(CNCC(C)(C)N4CCOCC4)n4ncnc(N)c34)sc12 [Example 75]	115	18.6	74.3	
COCCN(C)Cc1cc(-c2cc3cc(C)cc(OC)c3s2)c2c(N)ncnn12 [Example 76]	73.7	29.9	83	
CCN(Cc1cc(-c2cc3cc(C)cc(OC)c3s2)c2c(N)ncnn12)C(C)CO (stereo not drawn) [Example 77]	82.3	20.2	84.1	
COc1cc(C)cc2cc(-c3cc(CNC4CCS(=O)(=O)C4)n4ncnc(N)c34)sc12 (stereo not drawn) [Example 78]	95.8	35.6	86.6	
COc1cc(C)cc2cc(-c3cc(CN4CCCC4c4ccc(C)cc4)n4ncnc(N)c34)sc12 (stereo not drawn) [Example 79]	48.6	16.7	93	
COc1cc(C)cc2cc(-c3cc(CNC4CCN(C(C)C)CC4)n4ncnc(N)c34)sc12 [Example 80]	120	3	93.4	
COc1cc(C)cc2cc(-c3cc(CNC4CC4)n4ncnc(N)c34)sc12 [Example 81]	110	44.7	93.4	
COc1cc(C)cc2cc(-c3cc(CN4CCC(OC)CC4)n4ncnc(N)c34)sc12 [Example 82]	71.9	18.7	97.3	
COc1cc(C)cc2cc(-c3cc(CNC4CCCC4O)n4ncnc(N)c34)sc12 (stereo not drawn) [Example 83]	97.9	18.3	98.6	
